# Columns and labels:
# Experiment in all cases: combination Emax (second highest fraction inhibited in the dose matrix, 72 h); higher = more inhibition; extreme values may be limits of the assay
# [1] = tested on: SW1417 (Colorectal Carcinoma)
# Outline: (§1)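 After 24 hours at 37°C and 5% CO2 in 1536-well plates, cells in DMEM/F12 or RPMI plus 10% FBS received two-drug dose matrices for 72 hours. Viability came from CellTiter-Glo 2.0 luminescence and was scaled as inhibition, anchored at 0 by vehicle wells and at 1 by blank wells. Combination Emax is taken as the second-highest inhibition in the matrix, and Bliss excess as the observed combination effect less EA + EB − EA·EB, with EA and EB the single-agent effects.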
# [2] = tested on: MOLT-16 (T-Lymphoblastic Leukemia)
# Outline: as §1
# [3] = tested on: BL-41 (Burkitt's Lymphoma)
# Outline: as §1
# [4] = tested on: BFTC-905 (Bladder Carcinoma)
# Outline: as §1
# [5] = tested on: HL-60 (Acute Myeloid Leukemia)
# Outline: as §1
# [6] = tested on: SR (Other Blood Carcinomas)
# Outline: as §1
# [7] = tested on: NCI-H1792 (Lung Adenocarcinoma)
# Outline: as §1
# [8] = tested on: KM12 (Colorectal Carcinoma)
# Outline: as §1
# [9] = tested on: L-540 (Hodgkin's Lymphoma)
# Outline: as §1
# CHP-212 (Neuroblastoma) = tested on: CHP-212 (Neuroblastoma)
# Outline: as §1
# [10] = tested on: TOV-112D (Ovarian Carcinoma)
# Outline: as §1
# [11] = tested on: KCL-22 (Chronic Myelogenous Leukemia)
# Outline: as §1
# [12] = tested on: DND-41 (T-Lymphoblastic Leukemia)
# Outline: as §1
# [13] = tested on: MS751 (Cervical Carcinoma)
# Outline: as §1
# [14] = tested on: MFM-223 (Breast Carcinoma)
# Outline: as §1
# [15] = tested on: PANC-08-13 (Pancreatic Carcinoma)
# Outline: as §1
# [16] = tested on: SU-DHL-8 (B-Cell Non-Hodgkin's Lymphoma)
# Outline: as §1
# [17] = tested on: KARPAS-45 (T-Lymphoblastic Leukemia)
# Outline: as §1
# [18] = tested on: COLO-678 (Colorectal Carcinoma)
# Outline: as §1
# [19] = tested on: CAMA-1 (Breast Carcinoma)
# Outline: as §1
SMILES,combination Emax [1],combination Emax [2],combination Emax [3],combination Emax [4],combination Emax [5],combination Emax [6],combination Emax [7],combination Emax [8],combination Emax [9],combination Emax (CHP-212 (Neuroblastoma)),combination Emax [10],combination Emax [11],combination Emax [12],combination Emax [13],combination Emax [14],combination Emax [15],combination Emax [16],combination Emax [17],combination Emax [18],combination Emax [19]
"CN(C)CCCOc1ccc(-c2ccc3ncc4c(c3c2)n(C2CCOCC2)c(=O)n4C)cn1 [AZD0156] + C=CCn1c(=O)c2cnc(Nc3ccc(N4CCN(C)CC4)cc3)nc2n1-c1cccc(C(C)(C)O)n1 [AZD1775] (first compound max 1 µM, partner max 1 µM)",0.407,1,1,0.517,0.387,0.99,0.643,0.731,0.954,0.831,0.475,0.895,0.848,0.155,0.653,0.247,0.888,0.854,0.226,0.104
"CN(C)CCCOc1ccc(-c2ccc3ncc4c(c3c2)n(C2CCOCC2)c(=O)n4C)cn1 [AZD0156] + CCN(CCO)CCCOc1ccc2c(Nc3cc(CC(=O)Nc4cccc(F)c4)[nH]n3)ncnc2c1 [AZD2811] (first compound max 1 µM, 7x7, partner max 1 µM)",0.104,1,0.744,0.428,0.832,0.849,0.147,0.0745,0.366,0.803,0.35,0.333,0.206,0.326,0.168,0.0865,0.253,0.919,0.144,0.14
"CN(C)CCCOc1ccc(-c2ccc3ncc4c(c3c2)n(C2CCOCC2)c(=O)n4C)cn1 [AZD0156] + C[C@@H]1COCCN1C2=NC(=NC(=C2)C3(CC3)[S@](=N)(=O)C)C4=C5C=CNC5=NC=C4 [AZD6738] (first compound max 1 µM, 7x7, partner max 10 µM)",0.33,1,1,0.891,0.751,0.946,0.707,0.696,0.93,0.839,0.717,0.978,0.844,0.271,0.828,0.373,0.892,0.857,0.123,0.273
"CN(C)CCCOc1ccc(-c2ccc3ncc4c(c3c2)n(C2CCOCC2)c(=O)n4C)cn1 [AZD0156] + O=C(c1cc(Cc2n[nH]c(=O)c3ccccc23)ccc1F)N1CCN(C(=O)C2CC2)CC1 [Olaparib] (first compound max 3 µM, partner max 3 µM)",0.135,0.914,0.366,0.544,0.489,0.675,0.267,0.36,0.406,0.519,0.552,0.457,0.372,0.232,0.179,0.241,0.266,0.238,0.216,0.285
"C=CCn1c(=O)c2cnc(Nc3ccc(N4CCN(C)CC4)cc3)nc2n1-c1cccc(C(C)(C)O)n1 [AZD1775] + C1CN(CCC1(C(=O)N[C@@H](CCO)C2=CC=C(C=C2)Cl)N)C3=NC=NC4=C3C=CN4 [Capivasertib] (first compound max 3 µM, partner max 3 µM)",0.544,1,0.993,0.904,0.849,0.999,0.808,0.872,0.862,0.859,0.889,0.962,0.899,0.899,0.711,0.544,0.953,0.962,0.51,0.775
"C=CCn1c(=O)c2cnc(Nc3ccc(N4CCN(C)CC4)cc3)nc2n1-c1cccc(C(C)(C)O)n1 [AZD1775] + C[C@@H]1COCCN1C2=NC(=NC(=C2)C3(CC3)[S@](=N)(=O)C)C4=C5C=CNC5=NC=C4 [AZD6738] (first compound max 1 µM, partner max 10 µM)",0.655,1,1,0.964,0.893,1,0.866,0.852,0.941,0.823,0.764,1,0.929,0.428,0.897,0.373,0.903,1,0.199,0.46
"CN(CCO)CC[C@H](CSc1ccccc1)Nc1ccc(S(=O)(=O)NC(=O)c2ccc(N3CCC([C@@H](O)c4ccccc4-c4ccc(Cl)cc4)CC3)cc2)cc1S(=O)(=O)C(F)(F)F [AZD4320] + C[C@@H]1COCCN1C2=NC(=NC(=C2)C3(CC3)[S@](=N)(=O)C)C4=C5C=CNC5=NC=C4 [AZD6738] (first compound max 1 µM, 7x7, partner max 10 µM)",–,1,1,0.926,0.95,0.982,0.777,0.764,0.969,0.82,0.729,0.976,1,0.378,0.842,0.636,1,1,0.11,0.658
"CN(CCO)CC[C@H](CSc1ccccc1)Nc1ccc(S(=O)(=O)NC(=O)c2ccc(N3CCC([C@@H](O)c4ccccc4-c4ccc(Cl)cc4)CC3)cc2)cc1S(=O)(=O)C(F)(F)F [AZD4320] + C[C@@H](Nc1cc(F)cc(F)c1)c1cc(C(=O)N(C)C)cc2c(=O)cc(N3CCOCC3)oc12 [AZD8186] (first compound max 1 µM, 7x7, partner max 3 µM)",0.707,1,0.745,0.851,0.958,0.713,0.323,0.315,0.668,0.752,0.205,0.33,1,0.3,–,0.481,1,1,0.344,0.84
"CN(CCO)CC[C@H](CSc1ccccc1)Nc1ccc(S(=O)(=O)NC(=O)c2ccc(N3CCC([C@@H](O)c4ccccc4-c4ccc(Cl)cc4)CC3)cc2)cc1S(=O)(=O)C(F)(F)F [AZD4320] + Cn1cnc2c(F)c(Nc3ccc(Br)cc3Cl)c(C(=O)NOCCO)cc21 [Selumetinib] (first compound max 1 µM, 7x7, partner max 3 µM)",0.935,1,0.801,0.825,0.994,0.731,0.369,0.579,0.716,0.925,0.248,0.557,1,0.413,–,0.528,0.988,0.996,0.604,0.468
"COc1nnc2ccc(N3CCC(c4ccc(OCCN5CCN(C)C(=O)[C@H]5C)cc4)CC3)nn12 [AZD5153] + CN(CC[C@H](CSC1=CC=CC=C1)NC2=C(C=C(C=C2)S(=O)(=O)NC(=O)C3=CC=C(C=C3)N4CCC(CC4)[C@H](C5=CC=CC=C5C6=CC=C(C=C6)Cl)O)S(=O)(=O)C(F)(F)F)CCO [AZD4320] (first compound max 1 µM, 7x7, partner max 1 µM)",–,1,–,–,0.994,–,–,0.648,–,0.896,0.664,0.963,–,0.726,0.544,0.876,1,1,0.459,–
"Cc1c2c(nn1C)CSCc1cc(n(C)n1)CSc1cc(c3ccccc3c1)OCCCc1c(C(=O)O)n(C)c3c-2c(Cl)ccc13 [AZD5991] + C1CN(CCC1(C(=O)N[C@@H](CCO)C2=CC=C(C=C2)Cl)N)C3=NC=NC4=C3C=CN4 [Capivasertib] (first compound max 1 µM, 7x7, partner max 3 µM)",0.208,1,1,0.206,1,0.993,0.302,0.553,1,–,0.407,0.981,0.111,0.855,0.788,0.15,0.673,1,0.194,0.994
"CC(=O)c1c(C)c2cnc(Nc3ccc(N4CCNCC4)cn3)nc2n(C2CCCC2)c1=O [Palbociclib] + CN(CC[C@H](CSC1=CC=CC=C1)NC2=C(C=C(C=C2)S(=O)(=O)NC(=O)C3=CC=C(C=C3)N4CCC(CC4)[C@H](C5=CC=CC=C5C6=CC=C(C=C6)Cl)O)S(=O)(=O)C(F)(F)F)CCO [AZD4320] (first compound max 10 µM, 7x7, partner max 1 µM)",–,1,–,–,0.956,–,–,0.768,–,0.829,0.584,0.82,–,0.159,0.406,0.384,1,1,0.354,–
"CCc1c2c(nc3ccc(O)cc13)-c1cc3c(c(=O)n1C2)COC(=O)[C@]3(O)CC [SN-38] + O=C(c1cc(Cc2n[nH]c(=O)c3ccccc23)ccc1F)N1CCN(C(=O)C2CC2)CC1 [Olaparib] (first compound max 0.3 µM, 7x7, partner max 10 µM)",0.694,–,1,0.974,–,0.982,0.575,0.681,0.965,–,0.965,0.887,0.947,0.899,0.257,0.297,–,–,0.396,0.299

# Reference: the supplement of paper PMC11061612
